Peptide text beside a SMILES is read from it. * marks the point of attachment. Cbz = O=C(OCc1ccccc1)*
How the values were obtained:
[1] = system: polarized human bronchial epithelial cells; type: cell-based
Protocol: Primary culture of human bronchial epithelia and reagents utilized. Primary human airway epithelial cells were collected by enzymatic digestion of bronchial samples from lung transplants, as previously described (Kondo et al., 1991; Zabner et al., 1996). Isolated primary airway cells were seeded at a density of 5×10^5 cells/cm^2 onto collagen-coated Millicell-HA culture inserts (Millipore Corp., Bedford, Mass.). Primary cultures were grown at the air-liquid interface for more than 2 weeks, by which time differentiation into a mucociliary epithelium occurs. The culture medium, used to feed only the basolateral side of the cells, contained 49% DMEM, 49% Ham's F12 and 2% Ultraser G (BioSepra, Cedex, France). Dimethyl Sulphoxide (DMSO), camptothecin (Camp), etoposide (Etop), aphidicolin (Aphi), hydroxyurea (HU) and genistein (Geni) were purchased from Sigma (St. Louis, Mo.). Tripeptidyl aldehyde proteasome inhibitors N-Acetyl-L-Leucyl-L-Leucyl-Norleucine (LLnL) and benzyloxycarbonyl-L-leucyl-L-leucyl-L-leucinal (Z-LLL) were purchased from Calbiochem-Novabiochem Corporation (La Jolla, Calif.). Ubiquitin ligase (E3) inhibitors were obtained from Bachem Bioscience Inc. (King of Prussia, Pa.). Anti-AAV capsid monoclonal antibody (Anti-VP1, 2 and 3) was purchased from American Research Products (Belmont, Mass.) and anti-ubiquitin antibody was purchased from Santa Cruz Biotechnology Inc. (Santa Cruz, Calif.).
Transduction of polarized airway epithelial cells and primary human fibroblasts. rAAV infection of fully differentiated bronchial cells was performed as described in Duan et al. (1998). For infections from the apical surface of the airway cells, 5 μl rAAV was mixed with 50 μl of culture media and applied directly onto the apical compartment of Millicell inserts (MOI=10,000 particles/cell). During apical infection, the basolateral side of the Millicell was continuously bathed in culture media. Gene transfer to the basal side was performed by inverting Millicell inserts and applying viral vector to the bottom of the supporting filter membrane in a 50 μl volume for 2 hours. Subsequently, Millicell inserts were returned to the upright position, in the continued presence of the original viral inoculum plus an additional 450 μl of media. For both apical and basolateral infections, rAAV containing media was removed after 24 hours and replaced with either fresh culture media (for the basal side) or exposed to air (for the apical side). To test the effect of different agents on the efficiency of AAV transduction in polarized airway cells, 1 μl of each solution was mixed with AAV prior to infection of airway epithelia. Agents were usually presented during the 24 hours AAV infection period unless indicated otherwise. Most of the agents were dissolved in DMSO except for hydroxyurea (dissolved in phosphate buffered saline), H-Leu-Ala-OH (dissolved in 0.9% glacial acetic acid) and H-His-Ala-OH (dissolved in 50% methanol). The working concentrations of the agents were as follows: 0.1 μM camptothecin, 10 μM etoposide, 5 μg/ml aphidicolin, 40 mM hydroxyurea, 50 μM genistein, 40 μM LLnL and 4 μM Z-LLL. When the ubiquitin ligase (E3) inhibitors (H-Leu-Ala-OH and H-His-Ala-OH) were used, airway cells were pretreated with a combination of both inhibitors at a final concentration of 2 mM for 60 minutes prior to infection, followed by the continued presence of inhibitor (0.2 mM) during the entire 24 hours infection period from the basolateral surface. Studies involving EGTA treatment were performed by transiently treating the apical membrane of polarized airway epithelia with 3 mM EGTA in water for 10 minutes (Duan et al., 1998). Following hypotonic EGTA treatment, cultures were washed twice with culture medium and infected with rAAV in the presence or absence of 40 μM LLnL. Human primary fibroblast cells (P4) were maintained in 10% fetal bovine serum (FBS), 1% penicillin and streptomycin, and 89% DMEM. […]

HeLa cells = assay: AV2eGFP versus scAV2eGFP expression in Hela cells with hydroxyurea; type: cell-based; details: 5 mM pretreatment; 24 hours post-infection
Protocol: A set of viral vectors was prepared of half-genome length was prepared. Four GFP-based viruses were generated for this analysis (AV2eGFP, scAV2eGFP, AV2/5eGFP, and scAV2/5eGFP that had either 4.7 kb or 2.4 kb length genomes packaged into AAV2 or AAV5 capsids. The data AAV2 capsid viruses were identical to data for rAAV5 viruses. Functional confirmation of scAAV/dsAAV structure was performed by analysis of gene conversion and gene expression rates in Hela cells, sensitivity of transduction in Hela cells to the DNA synthesis inhibitor hydroxyurea (HU), and by denaturing NaHO gel electrophoresis. Polarized airway epithelia were infected with the various vector constructs from the apical membrane in the presence and absence of applied LLnL at the time of infection. Gene expression was monitored by quantitative morphometry of GFP fluorescence at various post-infection time points.

[2] = Toxicity of proteasome inhibitors in mice; type: in vivo, mouse; details: 10, 100, and 1000 fold higher effective doses; intra-tracheal and systemic (IV) delivery
Protocol: Long-term enhancement of rAAV transduction by proteasome inhibitor in vivo. To evaluate the potential utility of proteasome inhibitors for in vivo gene therapy, both the toxicity and efficacy of these agents for in vivo rAAV mediated gene transfer in the mouse lung was tested. To assess the toxicity of these proteasome inhibitors in mice, 10, 100, and 1000 fold higher effective doses of LLnL or Z-LLL were administered than used to induce gene transfer in polarized airway cells, using both intra-tracheal and systemic (IV) delivery. No toxicity was indicated by histologic evaluation of the lung and liver or was evidenced by the death of animals. To investigate whether these proteasome inhibitors could improve rAAV transduction in vivo, AV.LacZ (5×10^10 particles) was delivered either alone or in the presence of 400 μM Z-LLL by intranasal administration. Mouse lungs were harvested at 3, 10 and 150 days post-infection to evaluate short and long term effects. […] Targeted transgene expression was predominantly confined to the conducting airways, rather than in the parenchyma. Alveolar cells were rarely transduced. […] The range of transgene expression in distal and proximal airways was 0 to 4% and 5 to 18%, respectively.

[3] = system: mouse lung airway epithelium; assay: AV.LacZ gene transfer to mouse lung with Z-LLL (nasal aspiration, X-gal morphometry); type: in vivo; details: 400 μM Z-LLL; 3 and 10 days post infection
Protocol: In vivo studies in mice. Animal studies were performed in accordance with the institutional guidelines of the University of Iowa. To determine the effect of the proteasome inhibitor on AAV mediated gene transfer in mouse lung, 6 week-old BALB/c mice were lightly anesthetized using a methoxyflurane chamber. AV.LacZ (5×10^10 particles) was administered alone or with 400 μM Z-LLL in a 10 μl instillation by nasal aspiration as described by Walters et al. (2000). To prevent unforeseen toxicity of DMSO solvent, the proteasome inhibitor Z-LLL was dissolved in ethanol as a 40 mM stock solution and was included in the viral inoculum at 1% final concentration. Viral infection controls in the absence of Z-LLL also contained a 1% final concentration of ethanol. […] Lungs (N=3 for each condition) were embedded in OCT (optimal cutting temperature; Baxter, Warrendale, Pa.) and 15 μm serially sections were analyzed for gene transfer by calculating the percentage of positive cells in the airway epithelium. The diameter of the airway was recorded for classification (>360 μm, 260-350 μm, 160-250 μm, <150 μm) of results following morphometric analysis. Greater than 150 airway cross-sections were quantified for each experimental condition.

mouse lung = assay: AV2Luc / AV2/5Luc gene transfer to BL6 mouse lung with Z-LLL and/or Dox; type: in vivo; details: 200 μM

Compound | rAAV transduction from the apical surface ([1]; apical infection, data not shown) | effect on gene expression from AV2eGFP and scAV2eGFP (HeLa cells) | toxicity (histologic evaluation of lung and liver, death of animals) [2] | transgene expression (X-gal staining of lung) [3] | induction of transgene expression from AV2/5 vectors (mouse lung) | augmentation in transgene expression ([1]; applied to the serosal surface along with rAAV, 2 days post infection, LLnL 40 μM)
NC(=O)NO [hydroxyurea] | none of these agents facilitated rAAV transduction from the apical surface | significantly decreased gene expression from AV2eGFP but not scAV2eGFP virus | – | – | – | –
CC(C)C[C@@H](C=O)NC(=O)[C@H](CC(C)C)NC(=O)[C@H](CC(C)C)NC(=O)OCc1ccccc1 [Z-LLL, N-carbobenzoxyl-L-leucinyl-L-leucinyl-L-leucinal] (Cbz-Leu-Leu-Leu-aldehyde) | – | – | No toxicity | no detectable transgene expression | 10 fold | A similar result was achieved

Reference: patent publication US7749491B2, “Compounds and methods to enhance rAAV transduction” (priority 2003, dated 2010)
